In brackets after ≈: the same amount, converted by molar mass.
Columns and labels:
Assay in all cases: in vitro antibacterial evaluation, MIC by broth dilution
Format in all cases: cell-based
[1] = tested on: Escherichia coli; conditions: 18 hours at 35° C.
How it was run: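 Inoculum 5×10^5 CFU/mL; concentrations 64 to 0.06 μg/mL; MIC defined as lowest inhibitory level. Conducted by broth dilution under NCCLS guidelines.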

[2] = tested on: Staphylococcus sp.; conditions: broth dilution, 18 hours at 35° C.
How it was run: (§1)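 Broth dilution per NCCLS standard M7-A2 in Muller-Hinton II […], with an inoculum of 5×10^5 CFU/mL and antibiotic spanning 64-0.06 μg/mL. The MIC is the lowest concentration that inhibits growth of the organism.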

[3] = tested on: Streptococcus sp.; conditions: broth dilution, 18 hours at 35° C.
How it was run: as §1

[4] = tested on: Enterococcus sp.; conditions: broth dilution, 18 hours at 35° C.
How it was run: as §1

- MIC Escherichia coli (ATCC 25922) ([1]; Escherichia coli (ATCC 25922)): 64 µg/mL (≈ 45.8 µM)
- MIC Escherichia coli (GC 4559) ([1]; Escherichia coli (GC 4559)): >64 µg/mL
- MIC Escherichia coli (GC 4560) ([1]; Escherichia coli (GC 4560)): 4 µg/mL (≈ 2.86 µM)
- MIC Coagulase Negative Staphylococcus (GC 4547) [2]: 4 µg/mL (≈ 2.86 µM)
- MIC Coagulase Negative Staphylococcus (GC 4548) [2]: 4 µg/mL (≈ 2.86 µM)
- MIC Coagulase Negative Staphylococcus (GC 4549) [2]: 4 µg/mL (≈ 2.86 µM)
- MIC Coagulase Negative Staphylococcus (GC 4551) [2]: 8 µg/mL (≈ 5.72 µM)
- MIC Staphylococcus aureus (ATCC 29213) [2]: 8 µg/mL (≈ 5.72 µM)
- MIC Staphylococcus aureus (GC 1131) [2]: 8 µg/mL (≈ 5.72 µM)
- MIC Staphylococcus aureus (GC 4541) [2]: 8 µg/mL (≈ 5.72 µM)
- MIC Staphylococcus aureus (GC 4542) [2]: 8 µg/mL (≈ 5.72 µM)
- MIC Staphylococcus aureus (GC 4544) [2]: 8 µg/mL (≈ 5.72 µM)
- MIC Staphylococcus aureus (GC 4545) [2]: 4 µg/mL (≈ 2.86 µM)
- MIC Staphylococcus aureus-SMITH (GC 4543) [2]: 8 µg/mL (≈ 5.72 µM)
- MIC Staphylococcus aureus (ATCC 29213) ([2]; strain ATCC 29213): 8 µg/mL (≈ 5.72 µM)
- MIC Staphylococcus aureus (GC 1131) ([2]; strain GC 1131): 8 µg/mL (≈ 5.72 µM)
- MIC Staphylococcus aureus (GC 4541) ([2]; strain GC 4541): 8 µg/mL (≈ 5.72 µM)
- MIC Staphylococcus aureus (GC 4542) ([2]; strain GC 4542): 8 µg/mL (≈ 5.72 µM)
- MIC Staphylococcus aureus (GC 4544) ([2]; strain GC 4544): 8 µg/mL (≈ 5.72 µM)
- MIC Staphylococcus aureus (GC 4545) ([2]; strain GC 4545): 4 µg/mL (≈ 2.86 µM)
- MIC Coagulase Negative Staphylococcus (GC 4547) ([2]; strain GC 4547): 4 µg/mL (≈ 2.86 µM)
- MIC Coagulase Negative Staphylococcus (GC 4548) ([2]; strain GC 4548): 4 µg/mL (≈ 2.86 µM)
- MIC Coagulase Negative Staphylococcus (GC 4549) ([2]; strain GC 4549): 4 µg/mL (≈ 2.86 µM)
- MIC Coagulase Negative Staphylococcus (GC 4551) ([2]; strain GC 4551): 8 µg/mL (≈ 5.72 µM)
- MIC Staphylococcus aureus-SMITH (GC 4543) ([2]; strain SMITH GC 4543): 8 µg/mL (≈ 5.72 µM)
- MIC Streptococcus agalactiae (GC 4564) ([3]; strain GC 4564): 4 µg/mL (≈ 2.86 µM)
- MIC Streptococcus pyogenes (ID-3187) ([3]; strain ID-3187): 4 µg/mL (≈ 2.86 µM)
- MIC Enterococcus avium (GC 4558) ([4]; Enterococcus avium (GC 4558)): 64 µg/mL (≈ 45.8 µM)
- MIC Enterococcus faecalis (ATCC 29212) ([4]; Enterococcus faecalis (ATCC 29212)): 64 µg/mL (≈ 45.8 µM)
- MIC Enterococcus faecalis (GC 4553) ([4]; Enterococcus faecalis (GC 4553)): 64 µg/mL (≈ 45.8 µM)
- MIC Enterococcus faecalis (GC 4554) ([4]; Enterococcus faecalis (GC 4554)): 64 µg/mL (≈ 45.8 µM)
- MIC Enterococcus faecium (GC 2243) ([4]; Enterococcus faecium (GC 2243)): 64 µg/mL (≈ 45.8 µM)
- MIC Enterococcus faecium (GC 4556) ([4]; Enterococcus faecium (GC 4556)): 64 µg/mL (≈ 45.8 µM)
- MIC Enterococcus faecium (GC 4557) ([4]; Enterococcus faecium (GC 4557)): 8 µg/mL (≈ 5.72 µM)
- MIC Enterococcus faecalis (ATCC 29212) ([4]; strain ATCC 29212): 64 µg/mL (≈ 45.8 µM)
- MIC Enterococcus faecalis (GC 2242) ([4]; strain GC 2242): 32 µg/mL (≈ 22.9 µM)
- MIC Enterococcus faecium (GC 2243) ([4]; strain GC 2243): 64 µg/mL (≈ 45.8 µM)
- MIC Enterococcus faecalis (GC 4552) ([4]; strain GC 4552): 64 µg/mL (≈ 45.8 µM)
- MIC Enterococcus faecalis (GC 4553) ([4]; strain GC 4553): 64 µg/mL (≈ 45.8 µM)
- MIC Enterococcus faecalis (GC 4554) ([4]; strain GC 4554): 64 µg/mL (≈ 45.8 µM)
- MIC Enterococcus faecium (GC 4556) ([4]; strain GC 4556): 64 µg/mL (≈ 45.8 µM)
- MIC Enterococcus faecium (GC 4557) ([4]; strain GC 4557): 8 µg/mL (≈ 5.72 µM)
- MIC Enterococcus avium (GC 4558) ([4]; strain GC 4558): 64 µg/mL (≈ 45.8 µM)
SMILES: CC(C)CC(=O)OC1C(O)C(CO)OC(OC2C(CO)OC(Oc3ccc(CC4NC(=O)C(C(C)c5cccc(F)c5)NC(=O)CNC(=O)C(CO)NC(=O)C(C(O)C5CNC(=N)N5C5OC(CO)C(O)C(O)C5O)NC(=O)C(C(O)C5CNC(=N)N5)NC4=O)cc3)C(O)C2O)C1O (stereo not drawn) [Example 264b, Cyclo[glycyl-3-fluoro-β-methylphenylalanyl-O-[4-O-[3-O-(3-methylbutanoyl)hexopyranosyl]-hexopyranosyl]tyrosyl-3-(2-iminoimidazolidin-4-yl)seryl-3-(3-hexopyranosyl-2-iminoimidazolidin-4-yl)serylseryl]]
- MIC Staphylococcus haemolyticus (GC 4546) [2]: 4 µg/mL (≈ 2.86 µM)
- MIC Staphylococcus haemolyticus (GC 4546) ([2]; strain GC 4546): 4 µg/mL (≈ 2.86 µM)
